Measurements as given in article PMC11684029, “Discovery of VU6024578/BI02982816: An mGlu1 Positive Allosteric Modulator with Efficacy in Preclinical Antipsychotic and Cognition Models” (Journal of Medicinal Chemistry, 2024).

How the values were obtained:
[1] = test system: Wistar rats; experiment: qEEG telemetry recordings; assay type: in vivo; conditions: rat
Experimental: These effects were most pronounced between 30 and 120 min post treatment (Figure 11C).
Data are expressed as mean ± SEM and were analyzed by one- and two-way ANOVA followed by Dunnett’s Multiple Comparisons tests (*p < 0.05, **p < 0.01, ***p < 0.001 versus vehicle).
Wistar rats using a telemetry system (Data Sciences International DSI, USA).[20] Telemetric transmitters (F40-EET, Data Sciences International DSI, USA) were implanted intraperitoneally into male Wistar rats. EEG electrodes were placed supradurally above the hippocampus and two more electrodes were implanted into the neck muscle in order to measure the electromyography (EMG) signal required for differentiation between different vigilance states. Telemetric EEG recordings were performed during the light phase in the rats’ home cage environment. EEG activity was sampled at 500 Hz with a hardware filter cutoff of 50 Hz. Data were recorded continuously for 24 h, but only 1 h before compound treatment (baseline), the first 4 h after compound treatment plus an additional hour (+24 h time point) have been analyzed. Effects of treatment with 19d (1, 10 mg/kg, p.o., n = 14, applied 2 h after starting the recording) were determined on motor activity, body temperature, vigilance states and EEG power spectra using the EEG analysis software NeuroScore (Data Sciences International DSI, USA). The rats were tested in a crossover study design with a two-day washout period between two treatments.[20]

[2] = test system: C57BL/6JRj mice; experiment: N1 sensory gating, MK-801 induced deficit; assay type: in vivo; conditions: mouse, 10 mg/kg s.c.
From the text: We have also employed here event-related potentials (ERPs) and auditory-evoked oscillations, which serve as critical translational biomarkers, to assess the impact of our investigational drug on sensory processing and cognitive functions, providing valuable data on its potential efficacy in treating disorders like schizophrenia. Detailed description of the methodology, setup specifications and recording procedure and analysis of the 40 Hz auditory steady-state response (ASSR) protocol can be found in Schuelert et al.[27] […] Reduced entrainment of gamma oscillation reflects abnormalities in basic sensory registration and processing but is also associated with impaired higher cognitive functions.[32] ASSR can also be reliably impaired preclinically by different NMDA receptor antagonists.[33],[34] […] Abnormalities associated with the filtering or “gating” of sensory information are among the most consistent findings in schizophrenia research.[35] […]
Mice were placed in a plexiglass cage in an attenuated sound box and allowed to adapt to their environment for 20 min before subcutaneous administration of VU6024578 0.8, 4, and 10 mg/kg or vehicle (20% HP-β-CD in water). […] An infrared sensor on the Neurologger recorded the infrared trigger signals and trigger signals were saved in an individual trigger channel. […]

Cn1nc(-c2ccnn2C)cc1CNC(=O)c1cc(-c2ccco2)ccc1Cl [Compound 19d, 2-Chloro-N-((1,2′-dimethyl-1H,2’H-[3,3′-bipyrazol]-5-yl)methyl)-5-(furan-2-yl)benzamide]
body temperature ([1]; 10 mg/kg p.o.): no measurable changes
EEG power spectra ([1]; 10 mg/kg p.o., 60 to 240 min post treatment): consistent reduction of delta, alpha and beta power
motor activity ([1]; 10 mg/kg p.o., maximum within first 120 min): significantly increased
time spent in NREM and REM sleep ([1]; higher dose (10 mg/kg p.o.)): reduction
time spent in active and quiet wake states ([1]; higher dose (10 mg/kg p.o.)): significant increase
N1 sensory gating deficit induced by MK-801 [2]: reversed
